Reference: ChEMBL document CHEMBL1201862, “PubChem BioAssay data set” (2004)
Active and inactive are the calls of the source.

Experiments:
[1] = target: T1, Mannose-6-phosphate isomerase (Homo sapiens, UniProt P34949); assay: phosphomannose isomerase inhibition – biochemical, fluorescence intensity, confirmation (AID 1535)
T1 sequence (P34949 whole entry): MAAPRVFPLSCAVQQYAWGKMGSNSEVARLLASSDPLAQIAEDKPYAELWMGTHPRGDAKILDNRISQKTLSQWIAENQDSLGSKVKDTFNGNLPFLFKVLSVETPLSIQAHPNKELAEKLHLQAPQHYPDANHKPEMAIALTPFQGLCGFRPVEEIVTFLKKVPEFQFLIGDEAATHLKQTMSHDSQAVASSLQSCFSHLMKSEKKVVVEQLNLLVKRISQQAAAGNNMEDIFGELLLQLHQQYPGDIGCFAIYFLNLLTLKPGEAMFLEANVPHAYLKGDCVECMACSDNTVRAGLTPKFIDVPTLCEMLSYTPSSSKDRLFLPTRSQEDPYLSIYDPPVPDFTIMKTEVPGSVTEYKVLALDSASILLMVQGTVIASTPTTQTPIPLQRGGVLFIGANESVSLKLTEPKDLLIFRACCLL

Phosphomannomutase 2 = Phosphomannomutase 2 (Homo sapiens, UniProt O15305); assay: Counter screen SAR assay for PMM2 inhibitors via a fluorescence intensity assay. [Related pubchem assays (depositor defined):AID1545, AID1574]
CAAX prenyl protease 2 [2] = target: CAAX prenyl protease 2 (Saccharomyces cerevisiae S288c, UniProt Q03530); type: biochemical
CAAX prenyl protease 1 = CAAX prenyl protease 1 (Saccharomyces cerevisiae S288c, UniProt P47154); assay: yeast CAAX protease Ste24 inhibition – biochemical, S. cerevisiae, plate reader, cherry-pick, dose response (AID 488815)
CAAX prenyl protease 2 [3] = target: CAAX prenyl protease 2 (Homo sapiens, UniProt Q9Y256); assay: inhibition of Ras-converting CAAX protease Rce1 – biochemical, yeast membranes, quenched-peptide fluorescence, cherry-pick, dose response (AID 588849)
Trypsin = Trypsin (Sus scrofa, UniProt P00761); assay: trypsin protease activity blockade – biochemical, quenched peptide fluorescence, cherry-pick, selectivity assay for Rce1 protease inhibitor project, dose response (AID 488789)
Trypsin, sequence (P00761 whole entry): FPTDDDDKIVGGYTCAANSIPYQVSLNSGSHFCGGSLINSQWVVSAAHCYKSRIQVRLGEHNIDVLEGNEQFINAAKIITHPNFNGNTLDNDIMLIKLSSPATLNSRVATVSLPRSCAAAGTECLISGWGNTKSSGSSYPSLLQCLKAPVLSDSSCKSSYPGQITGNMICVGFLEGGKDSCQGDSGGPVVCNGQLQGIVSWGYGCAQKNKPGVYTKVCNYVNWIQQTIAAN

CAAX prenyl protease 1, sequence (P47154 whole entry): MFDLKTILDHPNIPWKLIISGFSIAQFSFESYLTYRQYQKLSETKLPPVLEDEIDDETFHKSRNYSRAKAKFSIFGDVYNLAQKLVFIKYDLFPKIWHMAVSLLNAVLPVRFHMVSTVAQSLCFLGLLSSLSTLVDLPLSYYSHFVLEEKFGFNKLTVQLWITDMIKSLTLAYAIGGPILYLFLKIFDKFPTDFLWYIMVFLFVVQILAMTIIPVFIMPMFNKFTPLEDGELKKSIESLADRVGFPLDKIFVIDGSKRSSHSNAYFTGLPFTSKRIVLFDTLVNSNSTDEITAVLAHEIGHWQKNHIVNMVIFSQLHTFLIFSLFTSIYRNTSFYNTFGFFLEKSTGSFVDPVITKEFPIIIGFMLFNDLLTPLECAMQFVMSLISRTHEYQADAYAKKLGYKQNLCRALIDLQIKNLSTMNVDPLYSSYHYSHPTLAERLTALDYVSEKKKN
CAAX prenyl protease 2 (Homo sapiens, UniProt Q9Y256), sequence (Q9Y256 whole entry): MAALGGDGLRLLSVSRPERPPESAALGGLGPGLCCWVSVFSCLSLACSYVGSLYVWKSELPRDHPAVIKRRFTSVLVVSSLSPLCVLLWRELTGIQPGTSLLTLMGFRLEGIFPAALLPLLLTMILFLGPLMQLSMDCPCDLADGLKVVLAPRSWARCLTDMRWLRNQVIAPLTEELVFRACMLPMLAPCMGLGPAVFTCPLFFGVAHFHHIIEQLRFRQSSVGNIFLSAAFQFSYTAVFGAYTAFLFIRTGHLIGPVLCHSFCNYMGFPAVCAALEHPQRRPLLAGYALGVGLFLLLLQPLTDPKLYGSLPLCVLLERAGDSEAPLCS
Phosphomannomutase 2, sequence (O15305 whole entry): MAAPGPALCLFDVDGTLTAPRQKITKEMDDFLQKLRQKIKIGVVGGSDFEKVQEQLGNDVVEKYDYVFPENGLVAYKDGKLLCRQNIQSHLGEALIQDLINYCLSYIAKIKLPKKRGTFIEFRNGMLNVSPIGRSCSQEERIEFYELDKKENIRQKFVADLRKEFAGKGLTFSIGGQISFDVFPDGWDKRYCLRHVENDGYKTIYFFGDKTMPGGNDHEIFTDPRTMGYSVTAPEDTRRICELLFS
CAAX prenyl protease 2 (Saccharomyces cerevisiae S288c, UniProt Q03530), sequence (Q03530 whole entry): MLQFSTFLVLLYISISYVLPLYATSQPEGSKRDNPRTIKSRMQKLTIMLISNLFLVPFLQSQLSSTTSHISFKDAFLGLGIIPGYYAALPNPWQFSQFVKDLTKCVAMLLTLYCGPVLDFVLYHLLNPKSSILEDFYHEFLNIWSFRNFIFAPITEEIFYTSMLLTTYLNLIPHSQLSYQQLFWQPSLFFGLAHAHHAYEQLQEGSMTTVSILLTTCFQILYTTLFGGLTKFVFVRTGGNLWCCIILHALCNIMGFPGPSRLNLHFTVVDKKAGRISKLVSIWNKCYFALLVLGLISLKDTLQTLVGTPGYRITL

## COc1ccc(/N=c2\ssnc2Cl)cc1OC
[1]
  IC50: 36.7 µM (active)
Phosphomannomutase 2
  IC50: > 100 µM (inactive)

## Nc1nc(N2CCN(C(=O)c3ccco3)CC2)nc2ccccc12
CAAX prenyl protease 2 [2]
  AC50: 28.7 µM (active)
CAAX prenyl protease 1
  AC50: 3.46 µM (active)
CAAX prenyl protease 2 [3]
  AC50: 8.22 µM (active)
Trypsin
  AC50: 15.3 µM (active)
